Experimental data: US20200123127A1, “REMOVAL OF SENESCENCE-ASSOCIATED MACROPHAGES” (EVERON BIOSCIENCES, INC., priority 2016, published 2020)

System: B16 melanoma lung metastasis in C57BL/6 mice
Experiment: Senescence-enhanced B16 lung metastasis model
Type: in vivo, mouse
Conditions: 20 mg/kg intraperitoneally once a day for 5 consecutive days; irradiated (11 Gy) C57BL/6 mice
Text: FIG. 4. Efficacy of A1.1 analogs in the senescence-enhanced B16 metastasis model. (A) Quantification of metastatic nodules by H&E morphometric analysis, and the resulting reduction in tumor burden (%) compared to vehicle control. (B) Quantitation morphometric analysis of lungs excised from irradiated mice treated with analogs of A1.1 post-inoculation of B16 cell intravenously, along with quantitation of morphometric analysis, are provided. (C) In vitro testing of A1.1 and analogs against the growth and viability of B16 cells, as assessed by the resazurin viability assay after 72 hour exposure to compounds compared to non-treated controls.
The role of senescent cells in the promotion of metastatic potential of cancer cells has also been described [Patent WO 2013090645 A1; Campisi, J. (2015). Cancer and Aging: Rival Demons]. […] To test the efficacy of A1.1, irradiated (11 Gy followed by bone-marrow transplantation) and non-irradiated C57BL/6 mice received B16 melanoma cells via tail vein injection were subsequently (72 hours later) administered A1.1 (20 mg/kg) intraperitoneally once a day for 5 consecutive days.
Synthesized analogs were also tested in vivo, to assess whether optimized structures are capable of showing activity against senescence-mediated B16 lung metastasis in irradiated mice (FIG. 4B). Analogs A1.1, A1.12, A1.13, A1.14, A1.15, and A1.6 were administered at 20 mg/kg intraperitoneally for 5 consecutive days. In addition to A1.1, treatment with analogs A1.12, A1.14 and A1.15 at 20 mg/kg reduced the metastatic burden in the lungs of irradiated mice by more than 2-fold.

SMILES: COc1ccc(C2C/C(=N\O)c3c(SCc4ccccc4)sc(C(=O)N4CCOCC4)c3C2)cc1 (stereo not shown) [Example A1.13, (3-(Benzylthio)-4-(hydroxyimino)-6-(4-methoxyphenyl)-4,5,6,7tetrahydrobenzo[c]thiophen-1-yl)(morpholino)methanone]
- reduction of B16 metastatic load in the lungs of irradiated mice vs vehicle: did not show a substantial decrease
